Results reported in ChEMBL document CHEMBL1133036, “Diacylglycerols with lipophilically equivalent branched acyl chains display high affinity for protein kinase C (PK-C). A direct measure of the effect of constraining the glycerol backbone in DAG lactones” (Bioorg Med Chem Lett, 2000).

Assay: Partition coefficient (logD)
Type: physicochemical
Settings: octanol/water

Structure (SMILES)	logD
O=C(OC[C@H](CO)OC(=O)C12CC3CC(CC(C3)C1)C2)C12CC3CC(CC(C3)C1)C2	5
CCCCCCCC(=O)OC[C@H](CO)OC(=O)CCCCCCC	5
CCCCCCCC/C=C/CCCCCCCC(=O)O[C@@H](CO)COC(C)=O [AUTONOM NAME:]	7

Other lines, results leading:

logD	Structure (SMILES)
2	CC(C)(C)C(=O)OCC(CO)OC(=O)C(C)(C)C (stereo unspecified)
5	CC(C)C(CC(=O)OC[C@H](CO)OC(=O)CC(C(C)C)C(C)C)C(C)C
5	CC(C)C(C/C=C1/CC(CO)(COC(=O)CC(C(C)C)C(C)C)OC1=O)C(C)C (stereo unspecified)
